Source: patent US20080261207A1, “Method of Measuring Cancer Susceptibility” (priority 2004, published 2008)

Test system: p21 mRNA
Assay: Radiation-induced p21 mRNA induction in heparinized whole blood incubated with dietary supplements (FIG. 5)
Type: cell-based, human
Conditions: heparinized whole blood of a single individual, EGC 10 μM, rLA 10 μg/mL, Cur 1 μM; for radiation-induced p21 expression: 1 hour at 37° C. with supplement, 1 Gy ionizing radiation, another 2 hours at 37° C.; for p21 levels on control blood (no radiation) / background p21 levels: incubated with supplement at 37° C., without radiation
Procedure: The protocol for measuring mRNA levels employed in this example was as follows. The assay procedure consists of 3 major steps: 1) leukocyte isolation and lysis on filterplates, 2) mRNA isolation, reverse primer hybridization, and cDNA synthesis in oligo(dT)-immobilized microplates, and 3) real time quantitative PCR. In brief, filterplates were placed over collection plates, and 150 μL 5 mmol/L Tris, pH 7.4, was applied to wet the filter membranes. Following centrifugation at 120×g for 1 min at 4° C. to remove solution from the filterplates, 50 μL of well-mixed blood samples were applied to each well and immediately centrifuged at 120×g for 2 min at 4° C., followed by washing of each well with 300 μL phosphate buffered saline (PBS) once with centrifugation at 2000×g for 5 min at 4° C. Then, 60 μL stock lysis buffer (see below), supplemented with 1% 2-mercaptoethanol (Bio Rad), 0.5 mg/mL proteinase K (Pierce), 0.1 mg/mL salmon sperm DNA (5 Prime Eppendorf/Brinkmann), 0.1 mg/mL E. coli tRNA (Sigma), […] each of specific reverse primers, and 10^7 molecules/mL of synthetic RNA34 as an internal standard, were applied to the filterplates, followed by incubation at 37° C. for 10 min. The filterplates were then placed over oligo(dT)-immobilized microplates (GenePlate, RNAture), and centrifuged at 2000×g for 5 min at 4° C. Following overnight storage at 4° C., the microplates were washed with 100 μL plain lysis buffer 3 times, and then with 150 μL wash buffer (0.5 mol/L NaCl, 10 mmol/L Tris, pH 7.4, 1 mmol/L EDTA) 3 times at 4° C. The cDNA was directly synthesized in each well by adding 30 μL buffer containing 1×RT-buffer (50 mmol/L KCl, 10 mmol/L Tris-HCl, pH 8.3, 5.5 mmol/L MgCl2, no dithiothreitol), 1.25 mmol/L each of dNTP, 4 units rRNasin, and 80 units of MMLV reverse transcriptase (Promega) (without primers), and incubation at 37° C. for 2 hours. The resultant 4 μL cDNA was directly transferred to 384-well PCR plates, to which 5 μL TaqMan universal master mix (Applied Biosystems) and 1 μL oligonucleotide cocktail (15 μmol/L each of forward and reverse primer, and 3-6 μmol/L TaqMan probe) were applied, and PCR was conducted in a PRISM 7900HT (Applied Biosystems), with one cycle of 95° C. for 10 min followed by 45 cycles of 95° C. for 30 sec, 55° C. for 30 sec, and 60° C. for 1 min. Each gene was amplified in separate wells. The cycle threshold (Ct), which was the cycle of PCR to generate certain amounts of PCR products (fluorescence), was determined using analytical software (SDS, Applied Biosystems). PCR was also conducted directly in the GenePlate using an iCycler (BioRad). […] First, heparinized whole blood was incubated with various dietary supplements at 37° C. for 1 hour (2 tubes for each compound). Then one tube was exposed to 1 Gy of ionizing radiation, then both tubes were incubated for another 2 hours at 37° C. The p21 mRNA was quantitated as described above. […] In FIG. 5, each data point is the mean ±standard deviation of p21 mRNA with ([…]) or without (◯) 1 Gy radiation. […] Data points surrounded by a circle indicate p<0.05.

Row | SMILES | radiation-induced p21 expression | p21 levels on control blood (no radiation) / background p21 levels
1 | COc1cc(/C=C/C(=O)CC(=O)/C=C/c2ccc(O)c(OC)c2)ccc1O [curcumin] | enhanced | increased
2 | O=C(O[C@@H]1Cc2c(O)cc(O)cc2O[C@@H]1c1cc(O)c(O)c(O)c1)c1cc(O)c(O)c(O)c1 [epigallocatechin gallate] | significantly enhanced | did not show any changes
3 | CCCCC/C=C\C/C=C\C/C=C\CCCCC(=O)O [γ-linoleic acid] | enhanced | increased
